According to patent US11957758B2, “Pharmaceutical composition of docetaxel conjugate and preparation method” (SHENZHEN SALUBRIS PHARMACEUTICALS CO. LTD, priority 2017, dated 2024):

Experiments:
4T1 breast cancer [1] = assay: 4T1 breast cancer lung metastasis model of mice, experiment (1); format: in vivo, BALB/c mice; settings: for breast tumor weight compared to the blank control group / number of metastatic nodules on the lung surface compared to the blank control group: tail vein once a week for 4 weeks, D28, IA1 10 mg/kg, DTX 5.7 mg/kg, MDC 10 mg/kg (equimolar); for breast tumor weight compared to the blank control group: FIG. 3A; for number of metastatic nodules on the lung surface compared to the blank control group: FIG. 3B
Procedure: • (1) Cell culture and tumor inoculation: 4T1 cells were cultured in 1640 medium (Gibco) containing 10% fetal bovine serum (Hyclone Corp, USA), 1% glutamine and 1% penicillin-streptomycin. The 4T1 cells in logarithmic growth phase were collected and the cell concentration was adjusted to 1.5×10^6/mL. 0.1 mL 4T1 cells (1.5×10^5/per mouse) were inoculated in the fourth mammary fat pad of female BALB/c mice.
Grouping and administration: BALB/c mice were inoculated with 4T1 breast cancer cells in the mammary fat pad. The day of inoculation was DO. Mice were administered in groups on the fourth day after inoculation. The experiment consisted of four groups: • (1) solvent control group (blank control group), • (2) IA1 10 mg/kg group, • (3) DTX (Docetaxel) 5.7 mg/kg group, • (4) MDC 10 mg/kg group. • (3) and (4) are positive control groups.
(§1) Each group had 10 animals. Mice were administered by tail vein injection once a week for 4 weeks. Animal weight and tumor volume were monitored during the administration. Animals were weighed every 2-3 days, and the long diameter and short diameter of breast tumors were measured with a vernier caliper. The tumor size was calculated by the formula: (½)×long diameter×(short diameter)^2. The experiment was terminated on the 28th day (D28). The mice were sacrificed by cervical dislocation after eyeball blood collection. The breast tumor and lung were weighed. The number of metastatic nodules on the lung surface was counted. The results of tumor weight are shown in FIG. 3A, and the results of the number of metastatic nodules on the lung surface are shown in FIG. 3B.

4T1 breast cancer [2] = assay: 4T1 breast cancer lung metastasis model of mice, experiment (2); format: in vivo, BALB/c mice; settings: for increase in breast tumor weight compared with the blank control group / increase in the number of metastatic nodules on the lung surface compared with the blank control group: tail vein once a week for 4 weeks, D28, DTX 5.7 mg/kg, DTX 5.7+MDA-1 4.53 mg/kg, DTX 5.7+MDA-1-linker 4.43 mg/kg; for increase in breast tumor weight compared with the blank control group: FIG. 4A
Procedure: 0.1 mL 4T1 cells (1.5×10^5/per mouse) were inoculated in the fourth mammary fat pad of female BALB/c mice.
Grouping and administration: BALB/c mice were inoculated with 4T1 breast cancer cells in the mammary fat pad. The day of inoculation was DO, and mice were administered in groups on the fourth day after inoculation. The experiment consisted of five groups: • (1) solvent control group (blank control group), • (2) IA1 10 mg/kg group, • (3) DTX (Docetaxel) 5.7 mg/kg group, • (4) DTX (5.7 mg/kg)+MDA-1 (4.53 mg/kg) group, • (5) DTX (5.7 mg/kg)+MDA-1-linker (4.43 mg/kg) group. • (3), (4) and (5) are positive control groups.
as §1, with “4A,” for “3A,”, “4B.” for “3B.”

4T1 breast cancer [3] = assay: 4T1 breast cancer lung metastasis model of mice, experiment (3); format: in vivo, BALB/c mice; settings: for increase in tumor weight compared with the blank control group / increase in tumor volume compared with the blank control group: tail vein once a week for 4 weeks, IA1 5 and 10 mg/kg, DTX 2.85 mg/kg, DTX 2.85+MDA-1 2.26 mg/kg, DTX 2.85+MDA-1-linker 2.21 mg/kg; for increase in tumor weight compared with the blank control group: D28, FIG. 5B; for increase in tumor volume compared with the blank control group: FIG. 5A
Procedure: […]. Grouping and administration: BALB/c mice were inoculated with 4T1 breast cancer cells in the mammary fat pad. The day of inoculation was DO, and mice were administered in groups on the fourth day after inoculation. The experiment consisted of six groups: • (1) solvent control group (blank control group), • (2) IA1 5 mg/kg group, • (3) IA1 10 mg/kg group, • (4) DTX (Docetaxel) 2.85 mg/kg group, • (5) DTX (2.85 mg/kg)+MDA-1 (2.26 mg/kg) group, • (6) DTX (2.85 mg/kg)+MDA-1-linker (2.21 mg/kg) group. • (4), (5) and (6) are positive control groups.
as §1, with “counted.” for “counted. The results of tumor weight are shown in FIG. 3A, and the results of the number of metastatic nodules on the lung surface are shown in FIG. 3B.”

[4] = Stability of IA1 in different pH environments (HPLC main peak purity); format: physicochemical
Procedure: The method for measuring the impurity content in the following examples is as follows, with reference to 0512 liquid chromatography method in the “Chinese Pharmacopoeia” 2015 Edition Volume IV. 20 μl of the system suitability solution, the reference solution, and the test solution are injected into the liquid chromatograph respectively, and the chromatograms are recorded. Calculation formula: each
AT is the peak area of each impurity in the test solution; AS is the average peak area of the main peak in the reference solution; CT is the concentration (mg/ml) of the test solution; Cs is docetaxel conjugate concentration (mg/ml) in the reference solution; F is the correction factor for each impurity.
HPLC conditions: An octadecyl bonded silica gel column (C18, 4.6×150 mm, 3.5 μm); gradient elution, phase A: acetonitrile: 0.1% phosphoric acid=45:55, phase B: acetonitrile; detection wavelength: 225 nm; flow rate: 1.0 ml/min; column temperature: 40° C.

| Compound | inhibitory effects on tumor and cancer metastasis (4T1 breast cancer [1]; same experiment, compared with IA1) | breast tumor weight compared to the blank control group (4T1 breast cancer [1]) | number of metastatic nodules on the lung surface compared to the blank control group (4T1 breast cancer [1]) | increase of inhibitory effect on lung surface metastatic nodules compared with docetaxel+MDA-1 (4T1 breast cancer [2]; IA1 10 mg/kg versus DTX 5.7 mg/kg+MDA-1 4.53 mg/kg) [%] | increase of inhibitory effect on lung surface metastatic nodules compared with docetaxel+MDA-1+linker (4T1 breast cancer [2]; IA1 10 mg/kg versus DTX 5.7 mg/kg+MDA-1-linker 4.43 mg/kg) [%] | difference in the inhibitory effects on lung surface nodules versus positive control groups (4T1 breast cancer [2]; IA1 10 mg/kg, FIG. 4B) | increase in breast tumor weight compared with the blank control group (4T1 breast cancer [2]; IA1 10 mg/kg) | increase in the number of metastatic nodules on the lung surface compared with the blank control group (4T1 breast cancer [2]; IA1 10 mg/kg, FIG. 4B) | difference in the inhibitory effects on tumor volume and weight versus positive control groups (4T1 breast cancer [3]; IA1 versus docetaxel, docetaxel+MDA-1, docetaxel+MDA-1-linker, FIGS. 5A and 5B) | increase in tumor weight compared with the blank control group (4T1 breast cancer [3]) | increase in tumor volume compared with the blank control group (4T1 breast cancer [3]) | Decrease in purity of main peak within 14 h (%) ([4]; Acetonitrile/pH 3.0 buffer) | Decrease in purity of main peak within 14 h (%) ([4]; Acetonitrile/pH 4.0 buffer) | Decrease in purity of main peak within 14 h (%) ([4]; Acetonitrile/pH 5.0 buffer) | Decrease in purity of main peak within 14 h (%) ([4]; Acetonitrile/pH 6.0 buffer) | Decrease in purity of main peak within 14 h (%) ([4]; Acetonitrile/pH 7.0 buffer) | Decrease in purity of main peak within 14 h (%) ([4]; Acetonitrile/pH 8.0 buffer) |
| --- | --- | --- | --- | --- | --- | --- | --- | --- | --- | --- | --- | --- | --- | --- | --- | --- | --- |
| CC(=O)O[C@@]12CO[C@@H]1C[C@H](O)[C@@]1(C)C(=O)[C@H](O)C3=C(C)[C@@H](OC(=O)[C@H](OC(=O)CCC(=O)NCCCC[C@H](NC(=O)CC[C@@H](NC(=O)[C@H](C)NC(=O)/C=C/c4ccc(F)cc4Cl)C(N)=O)C(=O)O)[C@@H](NC(=O)OC(C)(C)C)c4ccccc4)C[C@@](O)([C@@H](OC(=O)c4ccccc4)[C@H]21)C3(C)C [IA1] | the most excellent | significantly inhibited | significantly inhibited | 27.9 | 18.6 | significant difference | significantly inhibited | significantly inhibited | significant difference | significantly inhibited | significantly inhibited | 0.11 | 0.19 | 0.19 | 0.51 | 7.38 | 22.55 |
| CC(=O)O[C@@]12CO[C@@H]1C[C@H](O)[C@@]1(C)C(=O)[C@H](O)C3=C(C)[C@@H](OC(=O)[C@H](O)[C@@H](NC(=O)OC(C)(C)C)c4ccccc4)C[C@@](O)([C@@H](OC(=O)c4ccccc4)[C@H]21)C3(C)C [docetaxel] | – | significantly inhibited | significantly inhibited | – | – | – | significantly inhibited | significantly inhibited | – | significantly inhibited | significantly inhibited | – | – | – | – | – | – |
